Source: US6645918B1, “N-([1,2,4]triazoloazinyl)thiophenesulfonamide compounds and their use as herbicides” (Dow AgroSciences LLC, priority 2000, dated 2003)

Tests used:
Type in all cases: in vivo
[1] = tested on: chickweed (Stellaria media); assay: Postemergence herbicidal activity, chickweed; conditions: foliar spray, visual after 2 weeks, 0 no injury, 100 complete kill
Procedure, shortened: (§1)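 Injury rated visually at 2 weeks, 0 (none) to 100% (complete kill), relative to carrier-sprayed controls. Foliar spray applied to 7–21-day-old seedlings at first or second true leaf, with rates in ppm (1 ppm ≈ 1 g/ha) in an aqueous acetone/DMSO/crop oil/surfactant mix.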

[2] = tested on: cocklebur (Xanthium strumarium); assay: Postemergence herbicidal activity, cocklebur; conditions: foliar spray, visual after 2 weeks, 0 no injury, 100 complete kill
Procedure, shortened: as §1

[3] = tested on: lambsquarters (Chenopodium album); assay: Postemergence herbicidal activity, lambsquarters; conditions: foliar spray, visual after 2 weeks, 0 no injury, 100 complete kill
Procedure, shortened: as §1

[4] = tested on: morningglory (Ipomoea hederacea); assay: Postemergence herbicidal activity, morningglory; conditions: foliar spray, visual after 2 weeks, 0 no injury, 100 complete kill
Procedure, shortened: as §1

[5] = tested on: pigweed (Amaranthus retroflexus); assay: Postemergence herbicidal activity, pigweed; conditions: foliar spray, visual after 2 weeks, 0 no injury, 100 complete kill
Procedure, shortened: as §1

[6] = tested on: velvetleaf (Abutilion theophrasti); assay: Postemergence herbicidal activity, velvetleaf; conditions: foliar spray, visual after 2 weeks, 0 no injury, 100 complete kill
Procedure, shortened: as §1

viola (Viola tricolor) = assay: Postemergence herbicidal activity, viola; conditions: foliar spray, visual after 2 weeks, 0 no injury, 100 complete kill
Procedure, shortened: as §1

[7] = tested on: wild buckwheat (Polygonum convolvulus); assay: Postemergence herbicidal activity, wild buckwheat; conditions: foliar spray, visual after 2 weeks, 0 no injury, 100 complete kill
Procedure, shortened: as §1

[8] = tested on: blackgrass (Alopecurus myosuroides); assay: Postemergence herbicidal activity, blackgrass; conditions: foliar spray, visual after 2 weeks, 0 no injury, 100 complete kill
Procedure, shortened: as §1

[9] = tested on: giant foxtail (Setaria faberi); assay: Postemergence herbicidal activity, giant foxtail; conditions: foliar spray, visual after 2 weeks, 0 no injury, 100 complete kill
Procedure, shortened: as §1

[10] = tested on: Rox orange sorghum (Sorghum bicolor); assay: Postemergence herbicidal activity, Rox orange sorghum; conditions: foliar spray, visual after 2 weeks, 0 no injury, 100 complete kill
Procedure, shortened: as §1

wild oats (Avena fatua) [11] = assay: Postemergence herbicidal activity, wild oats; conditions: foliar spray, visual after 2 weeks, 0 no injury, 100 complete kill
Procedure, shortened: as §1

[12] = tested on: cocklebur (Xanthium strumarium); assay: Preemergence herbicidal activity, cocklebur; conditions: soil spray, visual after 3 weeks, 0 no injury, 100 complete kill or no germination
Procedure, shortened: (§2)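 Visual rating 3 weeks after treatment, 0-100% injury versus untreated pots, where 100 means complete kill or no germination. Soil of seeded pots was sprayed preemergence with aqueous Tween 155 dilutions of acetone/DMSO stocks, up to 4.48 kg/ha. Plants were grown in a greenhouse at about 23-29 °C day/22-28 °C night with ~15 h light.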

[13] = tested on: lambsquarters (Chenopodium album); assay: Preemergence herbicidal activity, lambsquarters; conditions: soil spray, visual after 3 weeks, 0 no injury, 100 complete kill or no germination
Procedure, shortened: as §2

[14] = tested on: morningglory (Ipomoea hederacea); assay: Preemergence herbicidal activity, morningglory; conditions: soil spray, visual after 3 weeks, 0 no injury, 100 complete kill or no germination
Procedure, shortened: as §2

[15] = tested on: pigweed (Amaranthus retroflexus); assay: Preemergence herbicidal activity, pigweed; conditions: soil spray, visual after 3 weeks, 0 no injury, 100 complete kill or no germination
Procedure, shortened: as §2

[16] = tested on: velvetleaf (Abutilion theophrasti); assay: Preemergence herbicidal activity, velvetleaf; conditions: soil spray, visual after 3 weeks, 0 no injury, 100 complete kill or no germination
Procedure, shortened: as §2

[17] = tested on: wild poinsettia (Euphorbia heterophylla); assay: Preemergence herbicidal activity, wild poinsettia; conditions: soil spray, visual after 3 weeks, 0 no injury, 100 complete kill or no germination
Procedure, shortened: as §2

[18] = tested on: blackgrass (Alopecurus myosuroides); assay: Preemergence herbicidal activity, blackgrass; conditions: soil spray, visual after 3 weeks, 0 no injury, 100 complete kill or no germination
Procedure, shortened: as §2

[19] = tested on: barnyardgrass (Echinochloa crus-galli); assay: Preemergence herbicidal activity, barnyardgrass; conditions: soil spray, visual after 3 weeks, 0 no injury, 100 complete kill or no germination
Procedure, shortened: as §2

[20] = tested on: crabgrass (Digitaria sanguinalis); assay: Preemergence herbicidal activity, crabgrass; conditions: soil spray, visual after 3 weeks, 0 no injury, 100 complete kill or no germination
Procedure, shortened: as §2

[21] = tested on: giant foxtail (Setaria faberi); assay: Preemergence herbicidal activity, giant foxtail; conditions: soil spray, visual after 3 weeks, 0 no injury, 100 complete kill or no germination
Procedure, shortened: as §2

[22] = tested on: Rox orange sorghum (Sorghum bicolor); assay: Preemergence herbicidal activity, Rox orange sorghum; conditions: soil spray, visual after 3 weeks, 0 no injury, 100 complete kill or no germination
Procedure, shortened: as §2

wild oats (Avena fatua) [23] = assay: Preemergence herbicidal activity, wild oats; conditions: soil spray, visual after 3 weeks, 0 no injury, 100 complete kill or no germination
Procedure, shortened: as §2

Row | Structure (SMILES) | STEME postemergence injury score 0-100 ([1]; 15.6 ppm) | XANST postemergence injury score 0-100 ([2]; 15.6 ppm) | CHEAL postemergence injury score 0-100 ([3]; 15.6 ppm) | IPOHE postemergence injury score 0-100 ([4]; 15.6 ppm) | AMARE postemergence injury score 0-100 ([5]; 15.6 ppm) | ABUTH postemergence injury score 0-100 ([6]; 15.6 ppm) | VIOTR postemergence injury score 0-100 (viola (Viola tricolor); 15.6 ppm) | POLCO postemergence injury score 0-100 ([7]; 15.6 ppm) | ALOMY postemergence injury score 0-100 ([8]; 15.6 ppm) | SETFA postemergence injury score 0-100 ([9]; 15.6 ppm) | SORBI postemergence injury score 0-100 ([10]; 15.6 ppm) | AVEFA postemergence injury score 0-100 (wild oats (Avena fatua) [11]; 15.6 ppm) | XANST preemergence injury score 0-100 ([12]; 35 g/Ha) | CHEAL preemergence injury score 0-100 ([13]; 35 g/Ha) | IPOHE preemergence injury score 0-100 ([14]; 35 g/Ha) | AMARE preemergence injury score 0-100 ([15]; 35 g/Ha) | ABUTH preemergence injury score 0-100 ([16]; 35 g/Ha) | EPHHL preemergence injury score 0-100 ([17]; 35 g/Ha) | ALOMY preemergence injury score 0-100 ([18]; 35 g/Ha) | ECHCG preemergence injury score 0-100 ([19]; 35 g/Ha) | further results
1 | COc1cscc1S(=O)(=O)Nc1nc2c(OC)ccc(OC)n2n1 [Compound 16] | 90% | 95% | 95% | 60% | 95% | 80% | 70% | 90% | 85% | 90% | 90% | 80% | 40% | 80% | 0% | 60% | 40% | 0% | 100% | 0% | DIGSA preemergence injury score 0-100 ([20]; 35 g/Ha): 30%; SETFA preemergence injury score 0-100 ([21]; 35 g/Ha): 0%; SORBI preemergence injury score 0-100 ([22]; 35 g/Ha): 0%; AVEFA preemergence injury score 0-100 (wild oats (Avena fatua) [23]; 35 g/Ha): 0%
2 | COc1cscc1S(=O)(=O)Nc1nc2c(C)cnc(OC)n2n1 [Compound 17] |  |  |  |  |  |  |  |  |  |  |  |  | 70% | 100% | 0% | 70% | 30% | 60% | 100% | 30% | STEME postemergence injury score 0-100 ([1]; 31.3 ppm): 90%; XANST postemergence injury score 0-100 ([2]; 31.3 ppm): 95%; CHEAL postemergence injury score 0-100 ([3]; 31.3 ppm): 100%; IPOHE postemergence injury score 0-100 ([4]; 31.3 ppm): 70%; AMARE postemergence injury score 0-100 ([5]; 31.3 ppm): 95%; ABUTH postemergence injury score 0-100 ([6]; 31.3 ppm): 85%; VIOTR postemergence injury score 0-100 (viola (Viola tricolor); 31.3 ppm): 70%; POLCO postemergence injury score 0-100 ([7]; 31.3 ppm): 60%; ALOMY postemergence injury score 0-100 ([8]; 31.3 ppm): 70%; SETFA postemergence injury score 0-100 ([9]; 31.3 ppm): 90%; SORBI postemergence injury score 0-100 ([10]; 31.3 ppm): 90%; AVEFA postemergence injury score 0-100 (wild oats (Avena fatua) [11]; 31.3 ppm): 85%; DIGSA preemergence injury score 0-100 ([20]; 35 g/Ha): 30%; SETFA preemergence injury score 0-100 ([21]; 35 g/Ha): 60%; SORBI preemergence injury score 0-100 ([22]; 35 g/Ha): 60%; AVEFA preemergence injury score 0-100 (wild oats (Avena fatua) [23]; 35 g/Ha): 30%
3 | COc1csc(Cl)c1S(=O)(=O)Nc1nc2c(OC)cnc(OC)n2n1 [Compound 18] | 90% | 100% | 90% | 75% | 100% | 85% | 100% | 95% | 70% | 90% | 100% | 95% |  |  |  |  |  |  |  |  | XANST preemergence injury score 0-100 ([12]; 4.4 g/Ha): 90%; CHEAL preemergence injury score 0-100 ([13]; 4.4 g/Ha): 100%; IPOHE preemergence injury score 0-100 ([14]; 4.4 g/Ha): 80%; AMARE preemergence injury score 0-100 ([15]; 4.4 g/Ha): 95%; ABUTH preemergence injury score 0-100 ([16]; 4.4 g/Ha): 90%; EPHHL preemergence injury score 0-100 ([17]; 4.4 g/Ha): 90%; ALOMY preemergence injury score 0-100 ([18]; 4.4 g/Ha): 100%; ECHCG preemergence injury score 0-100 ([19]; 4.4 g/Ha): 100%; DIGSA preemergence injury score 0-100 ([20]; 4.4 g/Ha): 98%; SETFA preemergence injury score 0-100 ([21]; 4.4 g/Ha): 100%; SORBI preemergence injury score 0-100 ([22]; 4.4 g/Ha): 100%; AVEFA preemergence injury score 0-100 (wild oats (Avena fatua) [23]; 4.4 g/Ha): 80%
